Experimental data taken from US20250163066A1, “PROTACs of MALT1” (TEGID THERAPEUTICS, INC., priority 2022, published 2025).

Molecular target: MALT1 (Homo sapiens (Human), UniProt Q9UDY8)
Experiment: MALT1 enzymatic activity inhibition (fluorescence, Ac-LRSR-AMC substrate)
Assay type: biochemical
Conditions: recombinant MALT1 1.5 ng/μl, Ac-LRSR-AMC 1 μM
Outline: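 Recombinant human MALT1 (1.5 ng/μl final) preincubated 10 min at rt with compounds in 50 mM HEPES pH 7.2-7.4, 100 mM NaCl, 900 mM sodium citrate, 10 mM DTT; 1 μM Ac-LRSR-AMC then added. AMC fluorescence read at start and after 30 min 37 °C plus 30 min rt; difference gives signal, % inhibition fitted to IC50.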

MALT1, sequence (Q9UDY8 whole entry): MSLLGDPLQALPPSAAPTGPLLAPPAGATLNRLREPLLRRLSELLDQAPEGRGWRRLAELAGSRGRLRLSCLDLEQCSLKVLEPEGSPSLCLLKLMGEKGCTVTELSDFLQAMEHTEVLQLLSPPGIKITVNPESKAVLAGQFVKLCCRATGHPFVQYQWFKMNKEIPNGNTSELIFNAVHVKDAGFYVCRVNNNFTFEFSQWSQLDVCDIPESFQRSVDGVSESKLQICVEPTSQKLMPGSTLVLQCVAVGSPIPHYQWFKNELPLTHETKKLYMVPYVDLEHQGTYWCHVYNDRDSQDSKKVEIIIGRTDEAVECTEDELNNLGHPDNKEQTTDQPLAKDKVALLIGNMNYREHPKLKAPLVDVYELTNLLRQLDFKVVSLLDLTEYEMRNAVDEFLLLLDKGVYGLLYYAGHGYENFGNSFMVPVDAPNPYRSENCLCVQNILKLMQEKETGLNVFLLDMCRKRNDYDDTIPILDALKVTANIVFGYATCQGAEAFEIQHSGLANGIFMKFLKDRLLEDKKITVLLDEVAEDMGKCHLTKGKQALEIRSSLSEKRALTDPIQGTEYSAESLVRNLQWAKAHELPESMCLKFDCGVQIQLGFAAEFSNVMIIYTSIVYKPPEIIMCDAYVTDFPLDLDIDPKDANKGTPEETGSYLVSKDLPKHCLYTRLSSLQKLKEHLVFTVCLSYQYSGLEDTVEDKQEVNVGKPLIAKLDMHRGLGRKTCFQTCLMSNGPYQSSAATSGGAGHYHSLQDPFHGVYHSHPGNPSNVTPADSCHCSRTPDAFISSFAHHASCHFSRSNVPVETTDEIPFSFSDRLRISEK

SMILES | EC50 [µM]
O=C1CCC(N2Cc3cc(N4CCN(C(=O)CCCCc5nc(-c6ncc(NC(=O)Nc7cnc8ccnn8c7C7CCCC7)cc6F)no5)CC4)ccc3C2=O)C(=O)N1 (centres unmarked) [Compound 81, 1-(7-cyclopentylpyrazolo[1,5-a]pyrimidin-6-yl)-3-[6-[5-[5-[4-[2-(2,6-dioxo-3-piperidyl)-1-oxo-isoindolin-5-yl]piperazin-1-yl]-5-oxo-pentyl]-1,2,4-oxadiazol-3-yl]-5-fluoro-3-pyridyl]urea] | 0.2 to 0.5
Cc1cc2ncc(NC(=O)Nc3cnc(-c4noc(CCCCCN5CCN(c6ccc7c(c6)CN(C6CCC(=O)NC6=O)C7=O)CC5)n4)c(C)c3)c(C3CCCO3)n2n1 (centres unmarked) [Compound 85, 1-[6-[5-[5-[4-[2-(2,6-dioxo-3-piperidyl)-1-oxo-isoindolin-5-yl]piperazin-1-yl]pentyl]-1,2,4-oxadiazol-3-yl]-5-methyl-3-pyridyl]-3-(2-methyl-7-tetrahydrofuran-2-yl-pyrazolo[1,5-a]pyrimidin-6-yl)urea] | ≤ 0.2
O=C1CCC(N2Cc3cc(N4CCN(CCCCCCc5nc(-c6ncc(NC(=O)Nc7cnc8ccnn8c7C7CCCC7)cc6F)no5)CC4)ccc3C2=O)C(=O)N1 (centres unmarked) [Compound 95, 1-(7-cyclopentylpyrazolo[1,5-a]pyrimidin-6-yl)-3-[6-[5-[6-[4-[2-(2,6-dioxo-3-piperidyl)-1-oxo-isoindolin-5-yl]piperazin-1-yl]hexyl]-1,2,4-oxadiazol-3-yl]-5-fluoro-3-pyridyl]urea] | ≤ 0.2
O=C1CCC(N2Cc3cc(N4CCN(CCCCCc5nc(-c6ncc(NC(=O)Nc7cnc8ccnn8c7C7CCCC7)cc6F)no5)CC4)ccc3C2=O)C(=O)N1 (centres unmarked) [Compound 97, 1-(7-cyclopentylpyrazolo[1,5-a]pyrimidin-6-yl)-3-[6-[5-[5-[4-[2-(2,6-dioxo-3-piperidyl)-1-oxo-isoindolin-5-yl]piperazin-1-yl]pentyl]-1,2,4-oxadiazol-3-yl]-5-fluoro-3-pyridyl]urea] | ≤ 0.2
O=C1CCC(N2Cc3cc(N4CCN(C(=O)CCCCc5nc(-c6ncc(NC(=O)Nc7cnc8ccnn8c7C7CCCCC7)cc6Cl)no5)CC4)ccc3C2=O)C(=O)N1 (centres unmarked) [Compound 98, 1-[5-chloro-6-[5-[5-[4-[2-(2,6-dioxo-3-piperidyl)-1-oxo-isoindolin-5-yl]piperazin-1-yl]-5-oxo-pentyl]-1,2,4-oxadiazol-3-yl]-3-pyridyl]-3-(7-cyclohexylpyrazolo[1,5-a]pyrimidin-6-yl)urea] | ≤ 0.2
O=C1CCC(N2Cc3cc(N4CCN(CCCCCc5nc(-c6ncc(NC(=O)Nc7cnc8ccnn8c7C7CCCCC7)cc6Cl)no5)CC4)ccc3C2=O)C(=O)N1 (centres unmarked) [Compound 99, 1-[5-chloro-6-[5-[5-[4-[2-(2,6-dioxo-3-piperidyl)-1-oxo-isoindolin-5-yl]piperazin-1-yl]pentyl]-1,2,4-oxadiazol-3-yl]-3-pyridyl]-3-(7-cyclohexylpyrazolo[1,5-a]pyrimidin-6-yl)urea] | ≤ 0.2
Cc1cc(NC(=O)Nc2cnc3ccnn3c2C2CCCC2)cnc1-c1noc(CCCCC(=O)Nc2cccc(C3CCC(=O)NC3=O)c2)n1 (centres unmarked) [Compound 100, 5-[3-[5-[(7-cyclopentylpyrazolo[1,5-a]pyrimidin-6-yl)carbamoylamino]-3-methyl-2-pyridyl]-1,2,4-oxadiazol-5-yl]-N-[3-(2,6-dioxo-3-piperidyl)phenyl]pentanamide] | 0.2 to 0.5
Cc1cc(NC(=O)Nc2cnc3ccnn3c2C2CCCC2)cnc1-c1noc(CCCCC(=O)Nc2ccc(C3CCC(=O)NC3=O)cc2)n1 (centres unmarked) [Compound 101, 5-[3-[5-[(7-cyclopentylpyrazolo[1,5-a]pyrimidin-6-yl)carbamoylamino]-3-methyl-2-pyridyl]-1,2,4-oxadiazol-5-yl]-N-[4-(2,6-dioxo-3-piperidyl)phenyl]pentanamide] | 0.2 to 0.5
O=C1CCC(N2Cc3cc(N4CCN(CCCCc5nc(-c6ncc(NC(=O)Nc7cnc8ccnn8c7C7CCCC7)cc6F)no5)CC4)ccc3C2=O)C(=O)N1 (centres unmarked) [Compound 105, 1-(7-cyclopentylpyrazolo[1,5-a]pyrimidin-6-yl)-3-[6-[5-[4-[4-[2-(2,6-dioxo-3-piperidyl)-1-oxo-isoindolin-5-yl]piperazin-1-yl]butyl]-1,2,4-oxadiazol-3-yl]-5-fluoro-3-pyridyl]urea] | 0.2 to 0.5
Cc1cc(NC(=O)Nc2cnc3ccnn3c2C2CCC2)cnc1-c1noc(CCCCCC(=O)N2CCN(c3ccc4c(c3)CN(C3CCC(=O)NC3=O)C4=O)CC2)n1 (centres unmarked) [Compound 114, 1-(7-cyclobutylpyrazolo[1,5-a]pyrimidin-6-yl)-3-[6-[5-[6-[4-[2-(2,6-dioxo-3-piperidyl)-1-oxo-isoindolin-5-yl]piperazin-1-yl]-6-oxo-hexyl]-1,2,4-oxadiazol-3-yl]-5-methyl-3-pyridyl]urea] | ≤ 0.2
Cc1cc(NC(=O)Nc2cnc3ccnn3c2C2CCC2)cnc1-c1noc(CCCCCCN2CCN(c3ccc4c(c3)CN(C3CCC(=O)NC3=O)C4=O)CC2)n1 (centres unmarked) [Compound 115, 1-(7-cyclobutylpyrazolo[1,5-a]pyrimidin-6-yl)-3-[6-[5-[6-[4-[2-(2,6-dioxo-3-piperidyl)-1-oxo-isoindolin-5-yl]piperazin-1-yl]hexyl]-1,2,4-oxadiazol-3-yl]-5-methyl-3-pyridyl]urea] | ≤ 0.2
Cc1cc(NC(=O)Nc2cnc3ccnn3c2C2CCCCC2)cnc1-c1noc(CCCC(=O)N2CCN(c3ccc4c(c3)CN(C3CCC(=O)NC3=O)C4=O)CC2)n1 (centres unmarked) [Compound 126, 1-(7-cyclohexylpyrazolo[1,5-a]pyrimidin-6-yl)-3-[6-[5-[4-[4-[2-(2,6-dioxo-3-piperidyl)-1-oxo-isoindolin-5-yl]piperazin-1-yl]-4-oxo-butyl]-1,2,4-oxadiazol-3-yl]-5-methyl-3-pyridyl]urea] | 0.5 to 1
O=C1CCC(N2Cc3cc(N4CCN(C(=O)CCCCCc5nnc(-c6ccc(NC(=O)Nc7cnc8ccnn8c7C7CCCC7)cn6)s5)CC4)ccc3C2=O)C(=O)N1 (centres unmarked) [Compound 128, 1-(7-cyclopentylpyrazolo[1,5-a]pyrimidin-6-yl)-3-[6-[5-[6-[4-[2-(2,6-dioxo-3-piperidyl)-1-oxo-isoindolin-5-yl]piperazin-1-yl]-6-oxo-hexyl]-1,3,4-thiadiazol-2-yl]-3-pyridyl]urea] | 1 to 5

Second part, the compound after the results:

EC50 [µM] | SMILES
≤ 0.2 | Cc1cc2ncc(NC(=O)Nc3cnc(-c4noc(CCCCCCN5CCN(c6ccc7c(c6)CN(C6CCC(=O)NC6=O)C7=O)CC5)n4)c(C)c3)c(C3CCCC3)n2n1 (centres unmarked) [Compound 83, 1-(7-cyclopentyl-2-methyl-pyrazolo[1,5-a]pyrimidin-6-yl)-3-[6-[5-[6-[4-[2-(2,6-dioxo-3-piperidyl)-1-oxo-isoindolin-5-yl]piperazin-1-yl]hexyl]-1,2,4-oxadiazol-3-yl]-5-methyl-3-pyridyl]urea]
> 5 | Cc1cc(-c2noc(CCCCC(=O)N3CCN(c4ccc5c(c4)CN(C4CCC(=O)NC4=O)C5=O)CC3)n2)ncc1NC(=O)Nc1cnc2ccnn2c1C1CCCC1 (centres unmarked) [Compound 94, 1-(7-cyclopentylpyrazolo[1,5-a]pyrimidin-6-yl)-3-[6-[5-[5-[4-[2-(2,6-dioxo-3-piperidyl)-1-oxo-isoindolin-5-yl]piperazin-1-yl]-5-oxo-pentyl]-1,2,4-oxadiazol-3-yl]-4-methyl-3-pyridyl]urea]
≤ 0.2 | Cc1cc(NC(=O)Nc2cnc3ccnn3c2C2CCCC2)cnc1-c1noc(CCCCCC(=O)N2CCN(c3ccc4c(c3)CN(C3CCC(=O)N(COC(=O)C(C)(C)C)C3=O)C4=O)CC2)n1 (centres unmarked) [Compound 102, [3-[5-[4-[6-[3-[5-[(7-cyclopentylpyrazolo[1,5-a]pyrimidin-6-yl)carbamoylamino]-3-methyl-2-pyridyl]-1,2,4-oxadiazol-5-yl]hexanoyl]piperazin-1-yl]-1-oxo-isoindolin-2-yl]-2,6-dioxo-1-piperidyl]methyl 2,2-dimethylpropanoate]
> 5 | CCCCOP(=O)(OCCCC)OCN1C(=O)CCC(N2Cc3cc(N4CCN(C(=O)CCCCCc5nc(-c6ncc(NC(=O)Nc7cnc8ccnn8c7C7CCCC7)cc6Cl)no5)CC4)ccc3C2=O)C1=O (centres unmarked) [Compound 103, dibutyl [3-[5-[4-[6-[3-[3-chloro-5-[(7-cyclopentylpyrazolo[1,5-a]pyrimidin-6-yl)carbamoylamino]-2-pyridyl]-1,2,4-oxadiazol-5-yl]hexanoyl]piperazin-1-yl]-1-oxo-isoindolin-2-yl]-2,6-dioxo-1-piperidyl]methyl phosphate]
0.5 to 1 | Cc1cc(NC(=O)Nc2cnc3ccnn3c2C2CCCCC2)cnc1-c1noc(CCCCC(=O)Nc2ccc3c(c2)CN(C2CCC(=O)NC2=O)C3=O)n1 (centres unmarked) [Compound 125, 5-[3-[5-[(7-cyclohexylpyrazolo[1,5-a]pyrimidin-6-yl)carbamoylamino]-3-methyl-2-pyridyl]-1,2,4-oxadiazol-5-yl]-N-[2-(2,6-dioxo-3-piperidyl)-1-oxo-isoindolin-5-yl]pentanamide]
1 to 5 | Cc1cc(NC(=O)Nc2cnc3ccnn3c2C(C)(C)C)cnc1-c1noc(CCCCC(=O)N2CCN(c3ccc4c(c3)CN(C3CCC(=O)NC3=O)C4=O)CC2)n1 (centres unmarked) [Compound 127, 1-(7-tert-butylpyrazolo[1,5-a]pyrimidin-6-yl)-3-[6-[5-[5-[4-[2-(2,6-dioxo-3-piperidyl)-1-oxo-isoindolin-5-yl]piperazin-1-yl]-5-oxo-pentyl]-1,2,4-oxadiazol-3-yl]-5-methyl-3-pyridyl]urea]
1 to 5 | CC(C)c1c(NC(=O)Nc2ccc(-c3nnc(CCCCCC(=O)N4CCN(c5ccc6c(c5)CN(C5CCC(=O)NC5=O)C6=O)CC4)s3)nc2)cnc2ccnn12 (centres unmarked) [Compound 129, 1-[6-[5-[6-[4-[2-(2,6-dioxo-3-piperidyl)-1-oxo-isoindolin-5-yl]piperazin-1-yl]-6-oxo-hexyl]-1,3,4-thiadiazol-2-yl]-3-pyridyl]-3-(7-isopropylpyrazolo[1,5-a]pyrimidin-6-yl)urea]
